Test results taken from patent US6815546B2, “Analogues of camptothecin, their use as medicaments and the pharmaceutical compositions containing them” (Societe de Recherches et d'Applications Scientifiques …, priority 1995, dated 2004).

tested on: Adenocarcinoma HT29 cells from the human colon; experiment: Adenocarcinoma HT29 cell proliferation, WST1 (compounds in DMA); assay type: cell-based; details: 72 hours, final DMA 0.1% (v/v)
Procedure: c. Adenocarcinoma HT29 cells from the human colon are cultured in a single layer at 37° in a humidified atmosphere containing 95% of air and 5% of CO2, in a modified essential Earle's medium at 4.5 g/l (Gibco, Paisley, United Kingdom); completed with 10% of inactivated foetal calf serum, 2 mM of glutamine, and 50 μg/ml of gentamycin (Gibco, Paisley, United Kingdom).
Approximately 2000 cells are seeded with the culture medium above in the wells of a microplate (96 wells, flat-bottomed) and incubated for 24 hours. Solutions in N,N-dimethyl-acetamide (DMA) of each of the examples of the invention, diluted in the culture medium so that the final concentration of DMA is 0.1% (v/v), are added to the plate cultures in order to obtain final concentration ranges from 1×10^−13 to 1×10^−5 M, and the cells are incubated for 72 hours.
The WST1 staining reagent, (Boehringer Mannheim, Germany) is then added to each well at a final concentration of 9%, and the cells are incubated for 2 hours at 37° C. This stage allows the mitochondrial deshydrogenase of the living cells to convert WST1 orange tetrazolium salt into crimson formazan. The resulting stained solutions are quantified by dual-beam detection ([…]) using a multi-cuvette scanning spectrophotometer.
The results shown in the following table III C) are expressed in terms of inhibitory concentration at 50% (IC50, in nM), accompanied by a confidence interval.

SMILES | IC50 [nM]
CC[C@@]1(O)CC(=O)OCc2c1cc1n(c2=O)Cc2c-1nc1cc(F)ccc1c2-c1ccc(N(C)C)cc1 [Example 167, (5R)-12-(4-dimethylaminophenyl)-5-ethyl-9-fluoro-5-hydroxy-4,5,13,15-tetrahydro-1H,3H-oxepino[3′,4′:6,7]indolizino [1,2-b]quinoleine-3,15-dione] | 13
CC[C@@]1(O)CC(=O)OCc2c1cc1n(c2=O)Cc2c-1nc1cc(F)ccc1c2CC(C)(C)C [Example 163, (5R)-5-ethyl-9-fluoro-5-hydroxy-12-neopentyl-4,5,13,15-tetrahydro-1H,3H-oxepino[3′,4′:6,7]indolizino[1,2-b]quinoleine-3,15-dione] | 6
CC[C@@]1(O)CC(=O)OCc2c1cc1n(c2=O)Cc2c-1nc1cc(F)ccc1c2-c1ccc(OC(F)(F)F)cc1 [Example 166, (5R)-5-ethyl-9-fluoro-5-hydroxy-12-(4-trifluoromethoxyphenyl)-4,5,13,15-tetrahydro-1H,3H-oxepino[3′,4′:6,7]indolizino[1,2-b]quinoleine-3,15-dione] | 8.9
CC[C@@]1(O)CC(=O)OCc2c1cc1n(c2=O)Cc2c-1nc1cc(F)ccc1c2CC(C)C [Example 162, (5R)-5-ethyl-9-fluoro-5-hydroxy-12-isobutyl-4,5,13,15-tetrahydro-1H,3H-oxepino[3′,4′:6,7]indolizino[1,2-b]quinoleine-3,15-dione] | 12

same assay, conditions: Homo sapiens, HT-29, 72 hours, final DMA 0.1% (v/v)

SMILES | IC50 [nM]
CCc1c2c(nc3ccccc13)-c1cc3c(c(=O)n1C2)COC(=O)C[C@]3(O)CC [Example 88, (5R)-5,12-diethyl-5-hydroxy-4,5,13,15-tetrahydro-1H,3H-oxepino[3′,4′:6,7]indolizino[1,2-b]quinoline-3,15-dione] | 12
CC[C@@]1(O)CC(=O)OCc2c1cc1n(c2=O)Cc2c-1nc1cc(F)ccc1c2-c1cc(F)cc(F)c1 [Example 117, (5R)-12-(3,5-difluorophenyl)-5-ethyl-9-fluoro-5-hydroxy-4,5,13,15-tetrahydro-1H,3H-oxepino[3′,4′:6,7]indolizino[1,2-b]quinoline-3,15-dione] | 0.25
CCc1c2c(nc3cc(F)c(F)cc13)-c1cc3c(c(=O)n1C2)COC(=O)C[C@]3(O)CC [Example 98, (5R)-5,12-diethyl-9,10-difluoro-5-hydroxy-4,5,13,15-tetrahydro-1H,3H-oxepino[3′,4′:6,7]indolizino[1,2-b]quinoline-3,15-dione] | 2.1
CC[C@@]1(O)CC(=O)OCc2c1cc1n(c2=O)Cc2cc3ccc(F)cc3nc2-1 [Example 84, (5R)-5-ethyl-9-fluoro-5-hydroxy-4,5,13,15-tetrahydro-1H,3H-oxepino[3′,4′:6,7]indolizino[1,2-b]quinoline-3,15-dione] | 2.5
CCc1c2c(nc3cc(F)cc(F)c13)-c1cc3c(c(=O)n1C2)COC(=O)C[C@]3(O)CC [Example 102, (5R)-5,12-diethyl-9,1 1-difluoro-5-hydroxy-4,5,13,15-tetrahydro-1H,3H-oxepino[3′,4′:6,7]indolizino[1,2-b]quinoline-3,15-dione] | 8
CC[C@@]1(O)CC(=O)OCc2c1cc1n(c2=O)Cc2c-1nc1cc(F)ccc1c2-c1ccc(F)cc1 [Example 115, (5R)-5-ethyl-9-fluoro-12-(4-fluorophenyl)-5-hydroxy-4,5,13,15-tetrahydro-1H,3H-oxepino[3′,4′:6,7]indolizino[1,2-b]quinoline-3,15-dione] | 0.26
CC[C@@]1(O)CC(=O)OCc2c1cc1n(c2=O)Cc2c-1nc1cc(F)c(F)cc1c2-c1ccccc1 [Example 93, (5R)-5-ethyl-9,10-difluoro-5-hydroxy-12-phenyl-4,5,13,15-tetrahydro-1H,3H-oxepino[3′,4′:6,7]indolizino[1,2-b]quinoline-3,15-dione] | 12
CCc1c2c(nc3cc(F)ccc13)-c1cc3c(c(=O)n1C2)COC(=O)C[C@]3(O)CC [Example 106, (5R)-5,12-diethyl-9-fluoro-5-hydroxy-4,5,13,15-tetrahydro-1H,3H-oxepino[3′,4′:6,7]indolizino[1,2-b]quinoline-3,15-dione] | 3.5
CC[C@@]1(O)CC(=O)OCc2c1cc1n(c2=O)Cc2cc3c(F)cc(F)cc3nc2-1 [Example 100, (5R)-5-ethyl-9,11-difluoro-5-hydroxy-4,5,13,15-tetrahydro-1H,3H-oxepino[3′,4′:6,7]indolizino[1,2-b]quinoline-3,15-dione] | 2.2
CCCCc1c2c(nc3cc(F)c(F)cc13)-c1cc3c(c(=O)n1C2)COC(=O)C[C@]3(O)CC [Example 95, (5R)-12-butyl-5-ethyl-9,10-difluoro-5-hydroxy-4,5,13,15-tetrahydro-1H,3H-oxepino[3′,4′:6,7]indolizino[1,2-b]quinoline-3,15-dione] | 8.5
CC[C@@]1(O)CC(=O)OCc2c1cc1n(c2=O)Cc2c-1nc1cc(F)c(F)cc1c2CC[Si](C)(C)C [Example 99, (5R)-5-ethyl-9,10-difluoro-5-hydroxy-1 2-(2-trimethylsilylethyl)-4,5,13,15-tetrahydro-1H,3H-oxepino[3′,4′:6,7]indolizino[1,2-b]quinoline-3,15-dione] | 5
CCCCc1c2c(nc3ccccc13)-c1cc3c(c(=O)n1C2)COC(=O)C[C@]3(O)CC [Example 87, (5R)-12-butyl-5-ethyl-5-hydroxy-4,5,13,15-tetrahydro-1H,3H-oxepino[3′,4′:6,7]indolizino[1,2-b]quinoline-3,15-dione] | 16
